US20240109917A1 (ACTELION PHARMACEUTICALS LTD, priority 2020, published 2024)

Experiments:
[1] = biological target: Tb-labeled inactive PDGFRβ (Homo sapiens (Human), UniProt P09619); experiment: PDGFRβ LanthaScreen Assay; format: binding; conditions: read-out: PDGFR Lantha IC50
[2] = biological target: His6-TEV-PDGFRβ (557-1016) (Homo sapiens (Human), UniProt P09619); experiment: PDGFRβ HTRF Assay; format: biochemical; conditions: read-out: PDGFR HTRF IC50
In short: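 Human PDGFRβ (557-1016) pre-incubated with compound for 30 min at RT in pH 7.5 HEPES/MgCl2/EGTA/Brij-35/DTT buffer. Reaction started with ATP and TK-biotin peptide, run 3 h at RT, then quenched with EDTA-containing Eu-cryptate antibody/streptavidin-XL665. HTRF 665/620 nm ratio read after 60 min; percent inhibition relative to DMSO and 10 μM imatinib controls.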

VEGFR2, unphosphorylated = VEGFR2, unphosphorylated (Homo sapiens (Human), UniProt P35968); experiment: VEGFR ADP GLO Assay; format: biochemical
VEGFR2, unphosphorylated, sequence (P35968 20-1356): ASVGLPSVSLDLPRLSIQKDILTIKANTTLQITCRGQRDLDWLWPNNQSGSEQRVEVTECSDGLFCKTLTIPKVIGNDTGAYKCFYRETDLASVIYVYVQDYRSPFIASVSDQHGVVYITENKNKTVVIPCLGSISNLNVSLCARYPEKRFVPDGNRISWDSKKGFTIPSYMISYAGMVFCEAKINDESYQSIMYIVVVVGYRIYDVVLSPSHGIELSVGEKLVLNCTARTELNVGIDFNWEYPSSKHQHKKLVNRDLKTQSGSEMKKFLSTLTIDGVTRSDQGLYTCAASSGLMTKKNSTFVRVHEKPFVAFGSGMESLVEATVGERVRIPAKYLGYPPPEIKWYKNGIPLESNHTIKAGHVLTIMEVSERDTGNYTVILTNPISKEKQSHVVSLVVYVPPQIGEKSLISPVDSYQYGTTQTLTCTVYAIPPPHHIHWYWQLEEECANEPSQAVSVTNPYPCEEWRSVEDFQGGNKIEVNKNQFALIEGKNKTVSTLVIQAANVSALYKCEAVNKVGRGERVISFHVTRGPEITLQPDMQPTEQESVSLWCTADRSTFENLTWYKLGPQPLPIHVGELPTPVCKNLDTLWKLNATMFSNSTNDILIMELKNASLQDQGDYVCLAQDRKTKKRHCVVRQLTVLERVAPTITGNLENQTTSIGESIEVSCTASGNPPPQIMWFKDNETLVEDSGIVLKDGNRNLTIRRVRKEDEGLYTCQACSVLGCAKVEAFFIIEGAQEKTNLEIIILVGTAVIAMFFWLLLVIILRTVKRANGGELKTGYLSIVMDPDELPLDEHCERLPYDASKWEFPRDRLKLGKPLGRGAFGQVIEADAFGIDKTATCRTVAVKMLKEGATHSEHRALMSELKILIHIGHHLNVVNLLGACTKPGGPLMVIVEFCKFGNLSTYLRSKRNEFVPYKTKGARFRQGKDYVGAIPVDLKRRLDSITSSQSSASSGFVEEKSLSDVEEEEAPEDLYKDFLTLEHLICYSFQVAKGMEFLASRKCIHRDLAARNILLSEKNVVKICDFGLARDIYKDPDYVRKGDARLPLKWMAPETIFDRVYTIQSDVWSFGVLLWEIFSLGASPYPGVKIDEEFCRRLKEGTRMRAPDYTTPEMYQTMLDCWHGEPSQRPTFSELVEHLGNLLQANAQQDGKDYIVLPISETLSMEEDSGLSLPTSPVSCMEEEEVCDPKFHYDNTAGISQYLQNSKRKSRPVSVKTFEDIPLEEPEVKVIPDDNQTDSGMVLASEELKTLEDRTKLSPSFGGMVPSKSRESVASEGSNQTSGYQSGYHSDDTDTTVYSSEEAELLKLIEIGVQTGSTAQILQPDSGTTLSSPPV

His6-TEV-PDGFRβ (557-1016), sequence (P09619 557-1016): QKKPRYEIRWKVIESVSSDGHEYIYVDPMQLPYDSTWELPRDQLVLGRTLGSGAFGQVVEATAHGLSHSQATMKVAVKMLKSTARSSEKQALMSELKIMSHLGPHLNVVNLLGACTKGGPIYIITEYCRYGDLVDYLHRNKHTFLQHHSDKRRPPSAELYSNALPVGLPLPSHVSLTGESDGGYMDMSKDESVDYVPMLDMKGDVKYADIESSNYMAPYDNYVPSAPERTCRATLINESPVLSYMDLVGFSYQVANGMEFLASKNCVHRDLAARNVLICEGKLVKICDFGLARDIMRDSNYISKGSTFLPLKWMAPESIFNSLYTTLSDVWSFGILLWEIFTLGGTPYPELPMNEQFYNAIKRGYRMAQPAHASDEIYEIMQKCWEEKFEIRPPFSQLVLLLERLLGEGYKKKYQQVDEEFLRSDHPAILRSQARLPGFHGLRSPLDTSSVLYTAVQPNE
Tb-labeled inactive PDGFRβ, sequence (P09619 33-1106): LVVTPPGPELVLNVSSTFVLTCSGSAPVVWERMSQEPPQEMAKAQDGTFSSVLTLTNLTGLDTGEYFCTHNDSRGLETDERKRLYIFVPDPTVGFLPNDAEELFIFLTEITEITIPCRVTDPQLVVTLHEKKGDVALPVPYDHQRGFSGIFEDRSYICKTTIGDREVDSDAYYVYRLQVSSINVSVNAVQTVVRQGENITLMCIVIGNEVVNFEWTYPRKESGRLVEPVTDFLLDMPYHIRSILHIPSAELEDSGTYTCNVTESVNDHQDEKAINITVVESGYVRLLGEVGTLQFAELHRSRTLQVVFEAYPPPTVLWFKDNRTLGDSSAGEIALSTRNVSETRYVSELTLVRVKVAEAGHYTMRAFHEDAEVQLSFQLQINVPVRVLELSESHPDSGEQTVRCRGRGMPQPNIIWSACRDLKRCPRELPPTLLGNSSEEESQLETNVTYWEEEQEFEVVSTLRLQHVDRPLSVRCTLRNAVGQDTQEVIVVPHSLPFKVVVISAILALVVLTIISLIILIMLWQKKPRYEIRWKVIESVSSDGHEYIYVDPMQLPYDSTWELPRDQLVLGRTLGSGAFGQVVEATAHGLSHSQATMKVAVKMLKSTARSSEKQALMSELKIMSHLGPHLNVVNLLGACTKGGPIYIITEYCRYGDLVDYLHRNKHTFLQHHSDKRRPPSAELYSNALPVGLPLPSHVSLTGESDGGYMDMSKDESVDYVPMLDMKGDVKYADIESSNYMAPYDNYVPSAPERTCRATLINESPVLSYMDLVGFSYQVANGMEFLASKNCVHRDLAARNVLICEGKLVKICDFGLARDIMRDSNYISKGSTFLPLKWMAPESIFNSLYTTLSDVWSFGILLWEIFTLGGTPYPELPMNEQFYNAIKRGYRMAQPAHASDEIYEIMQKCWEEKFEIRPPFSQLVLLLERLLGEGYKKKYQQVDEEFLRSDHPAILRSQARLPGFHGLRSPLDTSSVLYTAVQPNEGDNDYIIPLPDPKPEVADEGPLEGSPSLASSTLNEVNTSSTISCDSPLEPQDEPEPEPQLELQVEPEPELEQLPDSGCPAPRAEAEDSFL

| SMILES | IC50 [1] [nM] | IC50 [2] [nM] | IC50 (VEGFR2, unphosphorylated) [nM] |
| --- | --- | --- | --- |
| Cc1ncc(C(=O)NCCN2CCCC2)cc1NC(=O)c1cnn2cc(-c3cnn(C)c3C)sc12 [Example 220, 2-(1,5-Dimethyl-1H-pyrazol-4-yl)-N-(2-methyl-5-((2-(pyrrolidin-1-yl)ethyl)carbamoyl)pyridin-3-yl)pyrazolo[5,1-b]thiazole-7-carboxamide] | 5 | 0.2 | > 7500 |
| Cc1ncc(C(=O)NCCN2CCCC2(C)C)cc1NC(=O)c1cnn2cc(-c3cnn(CCC(O)CO)c3)sc12 (stereo not drawn) [Example 221, 2-(1-(3,4-Dihydroxybutyl)-1H-pyrazol-4-yl)-N-(5-((2-(2,2-dimethylpyrrolidin-1-yl)ethyl)carbamoyl)-2-methylpyridin-3-yl)pyrazolo[5,1-b]thiazole-7-carboxamide] | 7.1 | 0.9 | > 7500 |
| Cc1ncc(C(=O)NCCN2CCCC2)cc1NC(=O)c1cnn2cc(-c3cnn(CCC(O)CO)c3)sc12 (stereo not drawn) [Example 222, 2-(1-(3,4-Dihydroxybutyl)-1H-pyrazol-4-yl)-N-(2-methyl-5-((2-(pyrrolidin-1-yl)ethyl)carbamoyl)pyridin-3-yl)pyrazolo[5,1-b]thiazole-7-carboxamide] | 16.5 | 0.7 | > 7500 |
| Cc1ncc(C(=O)NCCN2CCCC2)cc1NC(=O)c1cnn2cc(-c3c(C)nn(C)c3C)sc12 [Example 223, N-(2-methyl-5-((2-(pyrrolidin-1-yl)ethyl)carbamoyl)pyridin-3-yl)-2-(1,3,5-trimethyl-1H-pyrazol-4-yl)pyrazolo[5,1-b]thiazole-7-carboxamide] | 5.7 | 0.6 | > 833 |
| Cc1ncc(C(=O)NCCN2CCCC2(C)C)cc1NC(=O)c1cnn2cc(-c3cn(C)nc3CO)sc12 [Example 224, N-(5-((2-(2,2-dimethylpyrrolidin-1-yl)ethyl)carbamoyl)-2-methylpyridin-3-yl)-2-(3-(hydroxymethyl)-1-methyl-1H-pyrazol-4-yl)pyrazolo[5,1-b]thiazole-7-carboxamide] | 11.2 | 1.4 | > 2500 |
| Cc1ncc(C(=O)NCCN2CCCC2)cc1NC(=O)c1cnn2cc(-c3cnn(CC(O)CO)c3)sc12 (stereo not drawn) [Example 225, 2-(1-(2,3-Dihydroxypropyl)-1H-pyrazol-4-yl)-N-(2-methyl-5-((2-(pyrrolidin-1-yl)ethyl)carbamoyl)pyridin-3-yl)pyrazolo[5,1-b]thiazole-7-carboxamide] | 12.2 | 0.6 | > 7500 |
| COc1ncccc1-c1cn2ncc(C(=O)Nc3cc(C(=O)NCCN4CCCC4(C)C)cnc3C)c2s1 [Example 226, N-(5-((2-(2,2-Dimethylpyrrolidin-1-yl)ethyl)carbamoyl)-2-methylpyridin-3-yl)-2-(2-methoxypyridin-3-yl)pyrazolo[5,1-b]thiazole-7-carboxamide] | 1.3 | 0.2 | > 2500 |
| Cc1ncc(C(=O)NCCN2CCCC2)cc1NC(=O)c1cnn2cc(-c3cn(C)nc3C(F)(F)F)sc12 [Example 227, 2-(1-Methyl-3-(trifluoromethyl)-1H-pyrazol-4-yl)-N-(2-methyl-5-((2-(pyrrolidin-1-yl)ethyl)carbamoyl)pyridin-3-yl)pyrazolo[5,1-b]thiazole-7-carboxamide] | 21.3 | 0.9 | > 833 |
| COc1ncccc1-c1cn2ncc(C(=O)Nc3cc(C(=O)NCCN4CCCC4C)cnc3C)c2s1 (stereo not drawn) [Example 228, 2-(2-Methoxypyridin-3-yl)-N-(2-methyl-5-((2-(2-methylpyrrolidin-1-yl)ethyl)carbamoyl)pyridin-3-yl)pyrazolo[5,1-b]thiazole-7-carboxamide] | 1.5 | 0.2 | > 833 |
| COc1ncccc1-c1cn2ncc(C(=O)Nc3cc(C(=O)NCCN4CCCC4)cnc3C)c2s1 [Example 229, 2-(2-Methoxypyridin-3-yl)-N-(2-methyl-5-((2-(pyrrolidin-1-yl)ethyl)carbamoyl)pyridin-3-yl)pyrazolo[5,1-b]thiazole-7-carboxamide] | 1.6 | 0.2 | > 833 |
| Cc1ncc(C(=O)NCCN2CCCC2(C)C)cc1NC(=O)c1cnn2cc(-c3cncc(S(C)(=O)=O)c3)sc12 [Example 230, N-(5-((2-(2,2-dimethylpyrrolidin-1-yl)ethyl)carbamoyl)-2-methylpyridin-3-yl)-2-(5-(methylsulfonyl)pyridin-3-yl)pyrazolo[5,1-b]thiazole-7-carboxamide] | 82.9 | 3.2 | > 2500 |
| Cc1ncc(C(=O)NCCN2CCCC2(C)C)cc1NC(=O)c1cnn2cc(-c3c(C)n[nH]c3C)sc12 [Example 231, 2-(3,5-Dimethyl-1H-pyrazol-4-yl)-N-(5-((2-(2,2-dimethylpyrrolidin-1-yl)ethyl)carbamoyl)-2-methylpyridin-3-yl)pyrazolo[5,1-b]thiazole-7-carboxamide] | 3.3 | 0.4 | > 7500 |
| Cc1ncc(NC(=O)CN2CCN(C)CC2)cc1NC(=O)c1cnn2cc(-c3cnn(C)c3)sc12 [Example 232, 2-(1-methyl-1H-pyrazol-4-yl)-N-(2-methyl-5-(2-(4-methylpiperazin-1-yl)acetamido)pyridin-3-yl)pyrazolo[5,1-b]thiazole-7-carboxamide] | 751 | 25.9 | > 7500 |
| COc1ncccc1-c1cn2ncc(C(=O)Nc3cc(NC(=O)CN4CCCC4(C)C)cnc3C)c2s1 [Example 233, N-(5-(2-(2,2-dimethylpyrrolidin-1-yl)acetamido)-2-methylpyridin-3-yl)-2-(2-methoxypyridin-3-yl)pyrazolo[5,1-b]thiazole-7-carboxamide] | 1.1 | 0.2 | > 7500 |
| Cc1ncc(C(=O)NCCNCCO)cc1NC(=O)c1cnn2cc(-c3cnn(C)c3)sc12 [Example 234, N-(5-((2-((2-hydroxyethyl)amino)ethyl)carbamoyl)-2-methylpyridin-3-yl)-2-(1-methyl-1H-pyrazol-4-yl)pyrazolo[5,1-b]thiazole-7-carboxamide] | 283 | 4.6 | > 7500 |
| Cc1ncc(C(=O)NCCN(CCO)CC2CCCCC2)cc1NC(=O)c1cnn2cc(-c3cnn(C)c3)sc12 [Example 235, N-(5-((2-((cyclohexylmethyl)(2-hydroxyethyl)amino)ethyl)carbamoyl)-2-methylpyridin-3-yl)-2-(1-methyl-1H-pyrazol-4-yl)pyrazolo[5,1-b]thiazole-7-carboxamide] | 5.2 | 0.5 | > 7500 |
| Cc1ncc(C(=O)NC[C@H]2CCCN2CCO)cc1NC(=O)c1cnn2cc(-c3cnn(C)c3)sc12 [Example 236, (R)—N-(5-(((1-(2-hydroxyethyl)pyrrolidin-2-yl)methyl)carbamoyl)-2-methylpyridin-3-yl)-2-(1-methyl-1H-pyrazol-4-yl)pyrazolo[5,1-b]thiazole-7-carboxamide] | 83.6 | 2.1 | > 2500 |
| Cc1ncc(C(=O)NC2CN(C(C)(C)C)C2)cc1NC(=O)c1cnn2cc(-c3cnn(C)c3)sc12 [Example 237, N-(5-((1-(tert-butyl)azetidin-3-yl)carbamoyl)-2-methylpyridin-3-yl)-2-(1-methyl-1H-pyrazol-4-yl)pyrazolo[5,1-b]thiazole-7-carboxamide] | 57.2 | 1.4 | > 7500 |
